From patent US20220298135A1, “5-HETEROARYL-PYRIDIN-2-AMINE COMPOUNDS AS NEUROPEPTIDE FF RECEPTOR ANTAGONISTS” (Domain Therapeutics, priority 2019, published 2022)

Columns and labels:
[1] = target: T1, human NPFFR1 (hNPFFR1) receptor (Homo sapiens, UniProt Q9GZQ6); test: Human NPFFR1 evaluation using BRET biosensors (antagonist IC50); format: cell-based; settings: hNPFFR1 transiently over-expressed in HEK-293 T cells; BRET signal; stimulation by EC80 RFRP-3
T1 construct: expressed in transfected cells; host or cells: HEK-293 T cells, transient co-transfection with polyethylenimine
Experimental: Compounds of the present invention were tested successively for their agonist and antagonist activities on human NPFFR1 (hNPFFR1) receptor transiently over-expressed in HEK-293 T cells. Compounds exert agonist activity if, by themselves in absence of neuropeptide RFRP-3 (also named NPVF) they activate hNPFFR1; and they exert antagonist activity if they decrease the action of RFRP-3 on the receptor.
The assay used to measure compound activity is based on BRET (Bioluminescence Resonance Energy Transfer) biosensors and is designed to monitor the plasma membrane translocation of protein that interacts with specific Ga subunit. The specific effector (luciferase tagged: BRET donor) recruited at the membrane will be in close proximity to a plasma membrane anchor (GFP tagged: BRET acceptor) to induce a BRET signal. Biosensors are described in the patent application WO 2016/041093 A1 (Biosensors for monitoring biomolecule localization and trafficking in cells).
HEK-293 T cells are maintained in Dulbecco's Modified Eagle's Medium supplemented with 10% Foetal Calf Serum, 1% Penicillin/Streptomycin at 37° C./5% CO2.
Cells are co-transfected using polyethylenimine (25 kDa linear) with four DNA plasmids encoding: hNPFFR1, GαoB, a Gi family specific intracellular effector fused to luciferase (BRET donor), a plasma membrane effector fused to GFP (BRET acceptor). After transfection, cells are cultured for 48 h at 37° C./5% CO2.
Receptor activity is detected by changes in BRET signal.
On the day of the assay, cells are detached using trypsin 0.05%, resuspended in assay buffer (1.8 mM CaCl2, 1 mM MgCl2, 2.7 mM KCl, 137 mM NaCl, 0.4 mM NaH2PO4, 5.5 mM D-Glucose, 11.9 mM NaHCO3, 25 mM Hepes) and seeded in 384 well plate at a density of 20,000 cells per well. Then, plates are equilibrated 3.5 hours at 37° C. before adding compounds.
Compounds and luciferase substrate are added to the cells using an automated device (Freedom Evo®, Tecan) and BRET readings are collected on EnVision (PerkinElmer) with specific filters (410 nm BW 80 nm, 515 nm BW 30 nm).
Agonist and antagonist activities of compounds are consecutively evaluated on the same cell plate. Agonist activity is first measured after 10 minutes incubation with compound alone on the cells. Then, cells are stimulated by an EC80 RFRP-3 concentration and luminescence is recorded for additional 10 minutes. EC80 RFRP-3 concentration is the concentration giving 80% of the maximal RFRP-3 response. Agonist or antagonist activities are evaluated in comparison to basal signals evoked by assay buffer or EC80 RFRP-3 alone, respectively.
For IC50 determination, a dose-response test is performed using 20 concentrations (ranging over 6 logs) of each compound. Dose-response curves are fitted using the sigmoidal dose-response (variable slope) analysis in GraphPad Prism software (GraphPad Software) and IC50 of antagonist activity is calculated. Dose-response experiments are performed in duplicate, in two independent experiments.

T1 sequence (Q9GZQ6 whole entry): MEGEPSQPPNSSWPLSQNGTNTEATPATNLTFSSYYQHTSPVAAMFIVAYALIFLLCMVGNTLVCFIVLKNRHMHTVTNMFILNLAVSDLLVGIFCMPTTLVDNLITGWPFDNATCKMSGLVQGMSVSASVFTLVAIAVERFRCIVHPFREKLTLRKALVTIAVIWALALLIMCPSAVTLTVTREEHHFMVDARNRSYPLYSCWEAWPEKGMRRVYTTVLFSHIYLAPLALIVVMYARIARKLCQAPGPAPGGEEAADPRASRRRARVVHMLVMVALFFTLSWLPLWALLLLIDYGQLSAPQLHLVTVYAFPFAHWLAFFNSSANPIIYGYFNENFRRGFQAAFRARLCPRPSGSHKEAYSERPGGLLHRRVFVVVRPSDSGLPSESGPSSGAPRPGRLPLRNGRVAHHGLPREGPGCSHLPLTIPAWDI

SMILES	IC50 [1] [µM]	melting point [°C]
Cl.Nc1ccc(-c2cccc3cccnc23)c(CC2CCC2)n1 [Example 68, 6-(cyclobutylmethyl)-5-(quinolin-8-yl)pyridin-2-amine]	< 0.1	120 to 180
Nc1ccc(-c2cncc3ccccc23)c(N)n1 [Example 36, 3-Isoquinolin-4-yl-pyridine-2,6-diamine]	> 1	180 to 185
CCc1nc(N)ccc1-c1cccc2c(C)ccnc12.Cl [Example 91, 6-ethyl-5-(4-methylquinolin-8-yl)pyridin-2-amine]	0.1 to 1	> 250
CCc1nc(N)ccc1-c1cccc2c1N(C)CC2.Cl [Example 162, 6-ethyl-5-(1-methylindolin-7-yl)pyridin-2-amine]	0.1 to 1	> 250
Nc1ccc(-c2cccc3cc[nH]c23)c(N)n1 [Example 25, 3-(1H-indol-7-yl)pyridine-2,6-diamine]	< 0.1	62 to 70
CCc1nc(N)ccc1-c1cccc2ccc(C(=O)N3CCCC3)nc12.Cl [Example 141, (8-(6-amino-2-ethylpyridin-3-yl)quinolin-2-yl)(pyrrolidin-1-yl)methanone]	< 0.1	100 to 125
Cl.Nc1ccc(-c2cccc3sccc23)c(N)n1 [Example 51, 3-(benzo[b]thiophen-4-yl)pyridine-2,6-diamine]	< 0.1	100 to 120
Cl.Nc1ccc(-c2cccc3c2sc2ccccc23)c(N)n1 [Example 39, 3-Dibenzothiophen-4-ylpyridine-2,6-diamine]	< 0.1	165 to 170
CCc1nc(N)ccc1-c1c(F)ccc2cccnc12.Cl [Example 65, 6-ethyl-5-(7-fluoroquinolin-8-yl)pyridin-2-amine]	< 0.1	150 to 195
Cl.Cn1ncc2cccc(-c3ccc(N)nc3N)c21 [Example 26, 3-(1-Methylindazol-7-yl)pyridine-2,6-diamine]	0.1 to 1	198 to 204
Cl.Nc1ccc(-c2ccc(F)c3cccnc23)c(N)n1 [Example 55, 3-(5-fluoroquinolin-8-yl)pyridine-2,6-diamine]	< 0.1	73 to 81
Cl.Nc1ccc(-c2csc3ccccc23)c(C2CC2)n1 [Example 13, 5-Benzo[b]thiophen-3-yl-6-cyclopropyl-pyridin-2-ylamine]	0.1 to 1	210 to 220
CCc1nc(N)ccc1-c1cccc2ccnn12.Cl [Example 104, 6-ethyl-5-(pyrazolo[1,5-a]pyridin-7-yl)pyridin-2-amine]	0.1 to 1	234 to 243
CCc1nc(N)ccc1-c1cccc2ccc(C(=O)N3CCOCC3)nc12.Cl [Example 166, (8-(6-amino-2-ethylpyridin-3-yl)quinolin-2-yl)(morpholino)methanone]	< 0.1	130 to 135
CCc1nc(N)ccc1-c1cccc2ccc(COC)nc12.Cl [Example 142, 6-ethyl-5-(2-(methoxymethyl)quinolin-8-yl)pyridin-2-amine]	< 0.1	210 to 225
CC(C)c1nc(N)ccc1-c1cccc2cccnc12.Cl [Example 11, 6-Isopropyl-5-(8-quinolyl)pyridin-2-amine]	< 0.1	> 250
CCc1nc(N)ccc1-c1cccc2ccc(N3CCC(F)(F)CC3)nc12.Cl [Example 132, 5-(2-(4,4-difluoropiperidin-1-yl)quinolin-8-yl)-6-ethylpyridin-2-amine]	< 0.1	120 to 141
CCc1nc(N)ccc1-c1ccccc1-c1ccc(N2CCCCC2)nc1.Cl [Example 80, 6-ethyl-5-(2-(6-(piperidin-1-yl)pyridin-3-yl)phenyl)pyridin-2-amine]	0.1 to 1	50 to 80

SMILES	IC50 [1] [µM]	melting point [°C]
Cl.Nc1ccc(-c2c(F)ccc3cccnc23)c(N)n1 [Example 57, 3-(7-fluoroquinolin-8-yl)pyridine-2,6-diamine]	< 0.1	190 to 220
CCc1nc(N)ccc1-c1ccc(F)cc1-c1ccc(N2CCOCC2)nc1.Cl [Example 82, 6-ethyl-5-(4-fluoro-2-(6-morpholinopyridin-3-yl)phenyl)pyridin-2-amine]	0.1 to 1	54 to 70
CCc1nc(N)ccc1-c1cccc2ccc(C3CCOCC3)nc12.Cl [Example 121, 6-ethyl-5-(2-(tetrahydro-2H-pyran-4-yl)quinolin-8-yl)pyridin-2-amine]	< 0.1	175 to 185
CCc1nc(N)ccc1-c1cccc2cc3c(nc12)CCCC3.Cl [Example 113, 6-ethyl-5-(5,6,7,8-tetrahydroacridin-4-yl)pyridin-2-amine]	< 0.1	160 to 172
Cl.Nc1ccc(-c2c(F)cc(F)c3cc(F)cnc23)c(N)n1 [Example 61, 3-(3,5,7-trifluoroquinolin-8-yl)pyridine-2,6-diamine]	< 0.1	> 250
Cc1ccc2ccc(F)c(-c3ccc(N)nc3N)c2n1.Cl [Example 23, 3-(7-fluoro-2-methylquinolin-8-yl)pyridine-2,6-diamine]	< 0.1	130 to 170
CCc1nc(N)ccc1-c1cccc2ccc(-c3cnoc3)nc12 [Example 125, 6-ethyl-5-(2-(isoxazol-4-yl)quinolin-8-yl)pyridin-2-amine]	< 0.1	178 to 182
CCc1nc(N)ccc1-c1cccc2ccc(C(=O)N3CC4CCC(C3)O4)nc12.Cl [Example 171, (8-(6-amino-2-ethylpyridin-3-yl)quinolin-2-yl)(8-oxa-3-azabicyclo[3.2.1]octan-3-yl)methanone]	< 0.1	150 to 160
CCc1nc(N)ccc1-c1cccc2c1NCC2.Cl [Example 164, 6-ethyl-5-(indolin-7-yl)pyridin-2-amine]	0.1 to 1	175 to 183
CCc1nc(N)ccc1-c1cccc2ccc(-c3ccc4nccn4c3)nc12.Cl [Example 123, 6-ethyl-5-(2-(imidazo[1,2-a]pyridin-6-yl)quinolin-8-yl)pyridin-2-amine]	< 0.1	70 to 75
CCc1nc(N)ccc1-c1cccc2ccc(=O)n(C)c12.Cl [Example 156, 8-(6-amino-2-ethylpyridin-3-yl)-1-methylquinolin-2(1H)-one]	> 1	132 to 145
Cl.Nc1ccc(-c2cccc3[nH]ccc23)c(N)n1 [Example 24, 3-(1H-Indol-4-yl)pyridine-2,6-diamine]	0.1 to 1	150 to 154
CCc1nc(N)ccc1-c1c(F)ccc2ccc(=O)[nH]c12.Cl [Example 158, 8-(6-amino-2-ethylpyridin-3-yl)-7-fluoroquinolin-2(1H)-one]	0.1 to 1	172 to 208
CCc1nc(N)ccc1-c1cccn2ccnc12.Cl [Example 102, 6-ethyl-5-(imidazo[1,2-a]pyridin-8-yl)pyridin-2-amine]	> 1	95 to 135
CN1Cc2c(cccc2-c2ccc(N)nc2N)C1=O [Example 27, 4-(2,6-Diamino-3-pyridyl)-2-methyl-isoindolin-1-one]	> 1	> 250
Cl.Nc1ccc(-c2cccc3cccnc23)c(C2CC2)n1 [Example 14, 6-Cyclopropyl-5-(8-quinolyl)pyridin-2-amine]	0.1 to 1	> 250
CCc1nc(N)ccc1-c1cccc2ccc(C(=O)N3CCCCCC3)nc12.Cl [Example 169, (8-(6-amino-2-ethylpyridin-3-yl)quinolin-2-yl)(azepan-1-yl)methanone]	< 0.1	140 to 144
CCc1nc(N)ccc1-c1cccc2c1N(C)CCC2.Cl [Example 165, 6-ethyl-5-(1-methyl-1,2,3,4-tetrahydroquinolin-8-yl)pyridin-2-amine]	0.1 to 1	155 to 165
